This note sets out measurements from patent US8128802B2, “Analysis apparatus and analysis method for glycosylated hemoglobin” (OJI Paper Co., Ltd, priority 2005, dated 2012).

Common to all, as to type: biochemical
For test [1], the system named is fructosyl amino acid oxidase. Nature of the test: Characteristics of fructosyl amino acid oxidase-immobilized column (Example 5). Particulars: buffer pH 8.0, 37° C. The method, then:
FIG. 1 was the flow type assay apparatus with one flow path. The buffer A was pumped out from the buffer tank (1) using the pump (2), and a 5 μL portion of the sample was injected using the valve (4). The fructosyl amino acid oxidase-immobilized column was placed in the first immobilized enzyme column (17) and the electrode for hydrogen peroxide was placed downstream. The second immobilized enzyme column (19), the second electrode for hydrogen peroxide (20), the protease-immobilized column (14) and the flow type calorimeter (16) were not disposed. The injected sample transferred with the flowing buffer, passed through the mixing coil (15) in the incubator (13), and thus the sample temperature was adjusted and the sample was mixed with the buffer. The sample passed through the fructosyl amino acid oxidase-immobilized column (17) and the electrode for hydrogen peroxide (18), hydrogen peroxide was produced from fructosyl valine in the sample, and the change of the current was detected.
The composition of the buffer for this assay apparatus contained 100 mM phosphoric acid, 50 mM potassium chloride and 1 mM sodium azide, and its pH was 8.0.
The flow rate of the buffer was 1.0 mL/minute, and the temperature in the incubator was 37° C.
Using the assay apparatus 1 mentioned in (3), a 5 μL portion of fructosyl glycine was injected, and the characteristics of the fructosyl amino acid oxidase-immobilized column was examined.
When pH in the buffer was 7.0, 7.5, 8.0, 8.5 or 9.0, the activity in the oxidation of fructosyl glycine was measured.

For test [2], the system named is fructosyl peptide oxidase. In words: Substrate specificity of fructosyl peptide oxidase-immobilized column (Example 4). Particulars: buffer A pH 7.0; for Relative response value: normalized to 100 for the response to fructosyl valine, 30° C. The method, then:
In the same way as described in Example 1 (1), 150 mg of firebrick powder (30 to 60 meshes) was formylated. The solution (200 μL) of fructosyl peptide oxidase (140 units/mL, from Kikkoman Co.) in 100 mM sodium phosphate buffer (pH 7.0) was contacted with the formylated firebrick powder, and then incubated at 0 to 4° C. for one day for the enzyme immobilization.
In the assay apparatus shown in FIG. 1, the protease-immobilized column (14), the flow type calorimeter (16) and the first immobilized enzyme column (17) were not disposed, and the electrode for glucose was placed in the electrode for hydrogen peroxide (18), the fructosyl peptide oxidase-immobilized column in the second immobilized enzyme column (19), and the electrode for hydrogen peroxide in the electrode for hydrogen peroxide (20). The buffer A was pumped out from the buffer tank (1) by the pump (2), and a 5 μL portion of the sample was injected using the valve (4). The injected sample transferred with the flowing buffer A, passed through the mixing coil (15) in the incubator (13), and thus the sample temperature was adjusted and the sample was mixed with the buffer. And then the sample passed through the downstream electrode for glucose (18), fructosyl peptide oxidase-immobilized column (19) and an electrode for hydrogen peroxide (20), hydrogen peroxide was produced from fructosyl valylhistidine in the sample, and the change of the current was detected.
The composition of the buffer A for the assay apparatus contained 100 mM phosphoric acid, 50 mM potassium chloride and 1 mM sodium azide, and its pH was 7.0.
(§1) The flow rate of the buffer was 1.0 mL/minute, and the temperature in the incubator was 30° C.
On fructosyl peptide oxidase-immobilized column, the substrate specificity for various fructosyl amino acids, fructosyl peptides, amino acids and sugars was examined using the assay apparatus mentioned in (4) when pH of the buffer A was 7.0. In the Table 4, the relative values were normalized to 100 for the response to fructosyl valine.

The subject of test [3] is fructosyl amino acid oxidase. In words: Substrate specificity of fructosyl amino acid oxidase-immobilized column (Example 3). The settings on record: buffers pH 8.0; for Relative response value: normalized to 100 for the response to fructosyl glycine, 37° C., dialysis module. The text has this:
The buffer was removed as far as possible. […] The support immobilized enzyme was packed into the column (internal diameter: 3.5 mm, length: 30 mm) to give the fructosyl amino acid oxidase-immobilized column. In the assay apparatus shown in FIG. 2, the flow type calorimeter (16), the protease-immobilized column (14) and the first immobilized enzyme column (17) were not disposed, and the electrode for glucose was placed in the electrode for hydrogen peroxide (18), the fructosyl amino acid oxidase-immobilized column in the second immobilized enzyme column (19), and the electrode for hydrogen peroxide in the electrode for hydrogen peroxide (20). The buffer B was pumped out from the buffer tank (24) using the pump (25), and a 100 μL portion of the sample was injected using the valve (4). […] Since the buffer A was pumped out from the buffer tank (1) by the pump (2), the components with low molecular weight in the sample dialyzed in the dialysis module (27) passed through the electrode for glucose (18), the fructosyl amino acid oxidase-immobilized column (19) and the electrode for hydrogen peroxide (20), and hydrogen peroxide from glucose and fructosyl amino acid in the sample was detected. […] The temperature in the incubator was 37° C. The substrate specificity of fructosyl amino acid oxidase-immobilized column for various fructosyl amino acids, fructosyl peptides, amino acids and sugars was examined using the assay apparatus mentioned in (4) when pH of the buffers was 8.0.

Test [4] has as its system fructosyl peptide oxidase. Nature of the test: Substrate specificity, pH profile and stability of fructosyl peptide oxidase-immobilized column (Example 1). The settings on record: for Relative activity (%) pH 6.0: buffer pH 6.0; for Relative activity (%) pH 6.0 / Relative activity (%) pH 7.0 / Relative activity (%) pH 8.0: normalized to 100 for the response to fructosyl valine at each pH, 30° C.; for Relative activity (%) pH 7.0: buffer pH 7.0; for Relative activity (%) pH 8.0: buffer pH 8.0. The method, then: Firebrick powder (150 mg, 30 to 60 meshes) was thoroughly dried, immersed in a 10% solution of γ-aminopropyltriethoxysilane in anhydrous toluene for one hour, then thoroughly washed with anhydrous toluene and dried. The aminosilane-modified support was immersed in a 5% aqueous glutaraldehyde solution for one hour, and then thoroughly washed with distilled water, followed by substitution with 100 mM sodium phosphate buffer (pH 7.0). The buffer was removed as far as possible. A solution ([…]) of fructosyl peptide oxidase (140 units/mL, from Kikkoman Co.) in 100 mM sodium phosphate buffer (pH 7.0) was contacted with the formylated firebrick powder, and then incubated at 0 to 4° C. for one day for the enzyme immobilization. The support immobilized enzyme was packed into a column (internal diameter: 3.5 mm, length: 30 mm) to give the fructosyl peptide oxidase-immobilized column.
The buffer was pumped out from a buffer tank (1) using a pump (2), and 5 μL of a sample was injected using a valve (4). A protease-immobilized column (14), a flow type calorimeter (16), a second immobilized enzyme column (19) and a second electrode for hydrogen peroxide (20) were not placed, and a fructosyl peptide oxidase-immobilized column was placed as a first immobilized enzyme column (17), followed by an electrode for hydrogen peroxide (18) downstream thereof. The injected sample transferred with the flowing buffer, passed through a mixing coil (15) inside an incubator (13), and thus the sample temperature was adjusted and the sample was mixed with the buffer. The sample passed through the fructosyl peptide oxidase-immobilized column (17) and the electrode for hydrogen peroxide (18) to produce hydrogen peroxide from fructosyl valylhistidine in the sample, and then the change of the current was detected.
A composition of the buffer used in this assay apparatus contained 100 mM phosphoric acid, 50 mM potassium chloride and 1 mM sodium azide, and its pH was 7.0.
as §1
Using the assay apparatus described in (3), a 5 μL portion of fructosyl glycine, fructosyl valine or fructosyl valylhistidine was injected, and the characteristics of the fructosyl peptide oxidase-immobilized column was examined.
When pH of the buffer was 6.0, 7.0 or 8.0, the assay results of the activity for the oxidation of fructosyl glycine (FG), fructosyl valine (FV) or fructosyl valylhistidine (FVH) were shown in FIG. 3. For fructosyl glycine the activity was high at pH 8.0, but the activity at pH 6.0 was decreased to about 50% of that at pH 8.0. For fructosyl valine and fructosyl valylhistidine, the activity was high at pH 6.0 and 7.0.
Response values in Table 1 were normalized to 100 for the response to fructosyl valine at each pH.

The structures appear in SMILES notation.

For `NCCCC[C@H](N)C(=O)O` [Lys], the “Relative activity (%)” value in test [1] (sample concentration 10 mM) was found to be 41.0%. The Relative response value in test [2] was 0.0. In test [3], the Relative response value is 0.0. Also, in test [4], the “Relative activity (%) pH 6.0” value was 0%, the “Relative activity (%) pH 7.0” value is reported as 0% and the “Relative activity (%) pH 8.0” value is on record as 0%.
Regarding `CSCC[C@H](N)C(=O)O` [Met], in test [1] (sample concentration 10 mM), the “Relative activity (%)” value was 8.0%. The molecule also displayed a Relative response value in test [2] of 0.0. In test [3], the “response of fructosyl amino acid oxidase-immobilized column” value is given as “extremely small responses” and the Relative response value was determined as 0.1. Besides, in test [4], the “Relative activity (%) pH 6.0” value is 0%, the “Relative activity (%) pH 7.0” value was 0% and the “Relative activity (%) pH 8.0” value is 0%.
For `N[C@@H](Cc1ccccc1)C(=O)O` [Phe], the “Relative activity (%)” value in test [1] (sample concentration 10 mM) is on record as 0.0%. Further, the Relative response value in test [2] worked out at 0.0. The molecule further registered a Relative response value in test [3] of 0.0. Further, in test [4], the “Relative activity (%) pH 6.0” value was 0%, the “Relative activity (%) pH 7.0” value was 0% and the “Relative activity (%) pH 8.0” value was found to be 0%.
Consider `O=C(O)[C@@H]1CCCN1` [Pro], for which, in test [1] (sample concentration 10 mM), the “Relative activity (%)” value turned out to be 2.0%. In test [2], this molecule returned a Relative response value of 0.0. Besides, the Relative response value in test [3] amounted to 0.0. In addition, in test [4], the “Relative activity (%) pH 6.0” value worked out at 0%, the “Relative activity (%) pH 7.0” value is 0% and the “Relative activity (%) pH 8.0” value turned out to be 0%.
For `N[C@@H](CO)C(=O)O` [Ser], in test [1] (sample concentration 10 mM), the “Relative activity (%)” value came out at 0.0%. The molecule further displayed a Relative response value in test [2] of 0.0. Moreover, in test [3], the Relative response value was 0.0. In test [4], the “Relative activity (%) pH 6.0” value was determined as 0%, the “Relative activity (%) pH 7.0” value came to 0% and the “Relative activity (%) pH 8.0” value was 0%.
Turning to `C[C@@H](O)[C@H](N)C(=O)O` [Thr], the “Relative activity (%)” value in test [1] (sample concentration 10 mM) was found to be 2.0%. In test [2], this molecule registered a Relative response value of 0.0. The same molecule yielded a Relative response value in test [3] of 0.0. Moreover, in test [4], the “Relative activity (%) pH 6.0” value is reported as 0%, the “Relative activity (%) pH 7.0” value stood at 0% and the “Relative activity (%) pH 8.0” value was found to be 0%.
Turning to `N[C@@H](Cc1c[nH]c2ccccc12)C(=O)O` [Trp], the “Relative activity (%)” value in test [1] (sample concentration 10 mM) amounted to 13.0%. In test [2], this molecule came in with a Relative response value of 0.0. Further, the Relative response value in test [3] stood at 0.0. In addition, in test [4], the “Relative activity (%) pH 6.0” value was found to be 0%, the “Relative activity (%) pH 7.0” value was found to be 0% and the “Relative activity (%) pH 8.0” value was found to be 0%.
Turning to `CC(C)[C@H](N)C(=O)O` [Val], the “Relative activity (%)” value in test [1] (sample concentration 10 mM) came out at 0.0%. Moreover, in test [2], the Relative response value is on record as 0.0. This molecule also returned a Relative response value in test [3] of 0.0. In test [4], the “Relative activity (%) pH 6.0” value came to 0%, the “Relative activity (%) pH 7.0” value was determined as 0% and the “Relative activity (%) pH 8.0” value came to 0%.
With `O=C[C@H](O)[C@@H](O)[C@H](O)CO` [Xylose], in test [1] (sample concentration 10 mM), the “Relative activity (%)” value is listed as 0.0%. In addition, the Relative response value in test [2] was found to be 0.0. Also, the Relative response value in test [3] stood at 0.0. In test [4], the “Relative activity (%) pH 6.0” value was 0%, the “Relative activity (%) pH 7.0” value came out at 0% and the “Relative activity (%) pH 8.0” value came out at 0%.
On to `O=C(O)[C@H](CCCCNCC(=O)[C@@H](O)[C@H](O)[C@H](O)CO)NCC(=O)[C@@H](O)[C@H](O)[C@H](O)CO` [α, ε-Fructosyl lysine], for which the “Relative activity (%)” value in test [1] (sample concentration 0.1 mM) is reported as 5.0%. In addition, in test [2], the “response of fructosyl peptide oxidase-immobilized column (in words)” value was “scarcely responded” and the Relative response value is listed as 9.9. For the same molecule, the Relative response value in test [3] is 1.1. The “response of fructosyl peptide oxidase-immobilized column (in words)” value in test [4] (at any pH (6.0, 7.0, 8.0)) is recorded as “scarcely responded”. Besides, in test [4], the “Relative activity (%) pH 6.0” value was 9%, the “Relative activity (%) pH 7.0” value was determined as 10% and the “Relative activity (%) pH 8.0” value was determined as 11%.
